Columns and labels:
Cannabinoid receptor 2 [1] = target: T1, Cannabinoid receptor 2 (Homo sapiens, UniProt P34972); test: Agonist activity at human recombinant CB2 receptor expressed in CHO cell membranes assessed as inhibition of forskolin-induced cAMP accumulation; assay type: functional, cell-based
Homo sapiens = species on record: Homo sapiens; test: Selectivity ratio of Ki for human recombinant CB1 receptor to KI for human recombinant CB2 receptor
Cannabinoid receptor 1 [2] = target: Cannabinoid receptor 1 (Homo sapiens, UniProt P21554); test: Displacement of [3H]CP-55940 from human recombinant CB1 receptor expressed in CHO cell membranes incubated for 90 mins by scintillation counting
Cannabinoid receptor 2 [3] = target: T1, Cannabinoid receptor 2; test: Displacement of [3H]CP-55940 from human recombinant CB2 receptor expressed in CHO cell membranes incubated for 60 mins by scintillation counting
Cannabinoid receptor 2 [4] = target: T2, Cannabinoid receptor 2 (Rattus norvegicus, UniProt Q9QZN9); test: Displacement of [3H]CP-55940 from CB2 receptor in Sprague-Dawley rat spleen by scintillation counting
T2 sequence (Q9QZN9 whole entry): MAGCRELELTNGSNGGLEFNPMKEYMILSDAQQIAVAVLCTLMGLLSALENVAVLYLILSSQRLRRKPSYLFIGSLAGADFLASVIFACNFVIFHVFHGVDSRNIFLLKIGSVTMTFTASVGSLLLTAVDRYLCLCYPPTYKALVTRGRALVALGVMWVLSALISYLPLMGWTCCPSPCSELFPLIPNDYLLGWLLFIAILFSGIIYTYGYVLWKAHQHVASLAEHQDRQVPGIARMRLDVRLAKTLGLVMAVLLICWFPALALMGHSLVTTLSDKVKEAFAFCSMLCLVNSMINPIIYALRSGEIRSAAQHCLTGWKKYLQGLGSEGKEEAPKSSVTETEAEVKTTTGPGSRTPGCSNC

Cannabinoid receptor 1 [5] = target: Cannabinoid receptor 1 (Rattus norvegicus, UniProt P20272); test: Displacement of [3H]CP-55940 from CB1 receptor in Sprague-Dawley rat brain by scintillation counting
Cannabinoid receptor 1 (Rattus norvegicus, UniProt P20272), sequence (P20272 whole entry): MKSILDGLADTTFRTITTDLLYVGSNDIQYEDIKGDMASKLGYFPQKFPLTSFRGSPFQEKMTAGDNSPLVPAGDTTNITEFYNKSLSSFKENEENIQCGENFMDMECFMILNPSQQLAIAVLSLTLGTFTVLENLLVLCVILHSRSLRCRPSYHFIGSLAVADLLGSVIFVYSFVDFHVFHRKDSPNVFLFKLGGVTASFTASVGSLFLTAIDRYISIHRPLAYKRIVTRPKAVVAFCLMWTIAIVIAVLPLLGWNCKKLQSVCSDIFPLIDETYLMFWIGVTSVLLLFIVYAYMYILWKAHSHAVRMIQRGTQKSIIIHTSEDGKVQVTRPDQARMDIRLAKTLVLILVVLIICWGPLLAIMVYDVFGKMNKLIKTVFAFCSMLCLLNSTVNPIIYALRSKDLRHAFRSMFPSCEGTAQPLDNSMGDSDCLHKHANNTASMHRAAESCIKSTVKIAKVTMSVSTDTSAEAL

T1 sequence (P34972 whole entry): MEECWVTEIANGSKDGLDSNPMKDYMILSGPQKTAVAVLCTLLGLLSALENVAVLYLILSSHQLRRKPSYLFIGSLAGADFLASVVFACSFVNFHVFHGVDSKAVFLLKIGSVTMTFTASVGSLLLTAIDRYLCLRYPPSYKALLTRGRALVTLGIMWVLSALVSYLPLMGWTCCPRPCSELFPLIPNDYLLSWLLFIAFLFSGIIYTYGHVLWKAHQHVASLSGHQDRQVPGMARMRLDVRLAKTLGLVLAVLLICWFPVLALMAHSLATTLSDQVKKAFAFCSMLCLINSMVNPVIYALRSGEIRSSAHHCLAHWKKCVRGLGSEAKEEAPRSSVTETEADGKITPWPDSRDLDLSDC
Cannabinoid receptor 1 (Homo sapiens, UniProt P21554), sequence (P21554 whole entry): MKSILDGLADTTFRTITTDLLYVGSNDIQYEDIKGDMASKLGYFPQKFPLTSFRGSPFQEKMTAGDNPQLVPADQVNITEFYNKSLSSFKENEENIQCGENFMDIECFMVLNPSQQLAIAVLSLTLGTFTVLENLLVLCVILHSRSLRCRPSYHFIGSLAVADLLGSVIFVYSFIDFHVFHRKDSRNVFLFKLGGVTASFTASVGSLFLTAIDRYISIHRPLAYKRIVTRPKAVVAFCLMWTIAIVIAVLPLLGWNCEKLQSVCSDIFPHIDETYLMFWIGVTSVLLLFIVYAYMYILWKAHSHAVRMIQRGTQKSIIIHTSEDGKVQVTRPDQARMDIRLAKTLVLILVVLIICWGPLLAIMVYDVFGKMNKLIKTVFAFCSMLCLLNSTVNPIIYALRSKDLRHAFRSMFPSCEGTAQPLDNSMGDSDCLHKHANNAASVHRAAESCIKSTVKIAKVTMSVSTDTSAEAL

Q: With C[C@@H]1COc2cccc3c(=O)c(C(=O)NC4CCCCC4)cn1c23 as the molecule, how does the IC50 (Cannabinoid receptor 2 [1]) read?
A: Its IC50 is 90 nM.

Q: And the Ratio Ki (Homo sapiens)?
A: The Ratio Ki was 119.

Q: And the Ki (Cannabinoid receptor 1 [2])?
A: Its Ki is 2870 nM.

Q: What about the Ki (Cannabinoid receptor 2 [3]) of the same molecule?
A: Its Ki is 24 nM.

Q: What about the Ki (Cannabinoid receptor 2 [4]) of the same molecule?
A: Its Ki is 30 nM.

Q: What about the Ki (Cannabinoid receptor 1 [5]) of the same molecule?
A: Its Ki is 3560 nM.

Q: With C[C@H]1COc2cccc3c(=O)c(C(=O)NC4CCCCC4)cn1c23 as the molecule, how does the IC50 (Cannabinoid receptor 2 [1]) read?
A: The IC50 was 724 nM.

Q: And the Ratio Ki (Homo sapiens)?
A: The Ratio Ki was 25.

Q: What about the Ki (Cannabinoid receptor 1 [2]) of the same molecule?
A: The Ki was 4650 nM.

Q: And the Ki (Cannabinoid receptor 2 [3])?
A: Its Ki is 188 nM.

Q: And the Ki (Cannabinoid receptor 2 [4])?
A: Its Ki is 250 nM.

Q: What about the Ki (Cannabinoid receptor 1 [5]) of the same molecule?
A: The Ki was 5240 nM.

Q: What does the source list for C[C@@H]1COc2cccc3c(=O)c(C(=O)NC45CC6CC(CC(C6)C4)C5)cn1c23?
A: IC50 (Cannabinoid receptor 2 [1]): 153 nM; Ratio Ki (Homo sapiens): > 212; Ki (Cannabinoid receptor 1 [2]): > 10000 nM; Ki (Cannabinoid receptor 2 [3]): 47 nM; Ki (Cannabinoid receptor 2 [4]): 52 nM; Ki (Cannabinoid receptor 1 [5]): > 10000 nM

Q: For C[C@H]1COc2cccc3c(=O)c(C(=O)NC45CC6CC(CC(C6)C4)C5)cn1c23, which IC50 (Cannabinoid receptor 2 [1]) is on record?
A: The IC50 was 250 nM.

Q: And the Ratio Ki (Homo sapiens)?
A: Its Ratio Ki is greater than 128.

Q: And the Ki (Cannabinoid receptor 1 [2])?
A: Its Ki is greater than 10000 nM.

Q: And the Ki (Cannabinoid receptor 2 [3])?
A: Its Ki is 78 nM.

Q: And the Ki (Cannabinoid receptor 2 [4])?
A: Its Ki is 86 nM.

Q: What about the Ki (Cannabinoid receptor 1 [5]) of the same molecule?
A: The Ki was greater than 10000 nM.

Q: Which IC50 (Cannabinoid receptor 2 [1]) does the source give for CC[C@@H]1COc2cccc3c(=O)c(C(=O)NC4CCCCCC4)cn1c23 here?
A: Its IC50 is 17.2 nM.

Q: And the Ratio Ki (Homo sapiens)?
A: The Ratio Ki was 25.

Q: What about the Ki (Cannabinoid receptor 1 [2]) of the same molecule?
A: Its Ki is 105 nM.

Q: What about the Ki (Cannabinoid receptor 2 [3]) of the same molecule?
A: The Ki was 4.12 nM.

Q: What about the Ki (Cannabinoid receptor 2 [4]) of the same molecule?
A: The Ki was 6.03 nM.

Q: What about the Ki (Cannabinoid receptor 1 [5]) of the same molecule?
A: Its Ki is 126 nM.

Q: CC[C@H]1COc2cccc3c(=O)c(C(=O)NC4CCCCCC4)cn1c23 was tested. Which IC50 (Cannabinoid receptor 2 [1]) did it give?
A: The IC50 was 682 nM.

Q: What about the Ratio Ki (Homo sapiens) of the same molecule?
A: Its Ratio Ki is 4.5.

Q: What about the Ki (Cannabinoid receptor 1 [2]) of the same molecule?
A: Its Ki is 843 nM.

Q: What about the Ki (Cannabinoid receptor 2 [3]) of the same molecule?
A: Its Ki is 187 nM.

Q: What about the Ki (Cannabinoid receptor 2 [4]) of the same molecule?
A: Its Ki is 203 nM.

Q: What about the Ki (Cannabinoid receptor 1 [5]) of the same molecule?
A: Its Ki is 913 nM.

Q: How did the IC50 (Cannabinoid receptor 2 [1]) turn out when CC[C@@H]1COc2cccc3c(=O)c(C(=O)NC45CC6CC(CC(C6)C4)C5)cn1c23 was run?
A: The IC50 was 18.1 nM.

Q: What about the Ratio Ki (Homo sapiens) of the same molecule?
A: Its Ratio Ki is 40.

Q: What about the Ki (Cannabinoid receptor 1 [2]) of the same molecule?
A: The Ki was 197 nM.

Q: What about the Ki (Cannabinoid receptor 2 [3]) of the same molecule?
A: Its Ki is 4.93 nM.

Q: What about the Ki (Cannabinoid receptor 2 [4]) of the same molecule?
A: The Ki was 6.17 nM.

Q: What about the Ki (Cannabinoid receptor 1 [5]) of the same molecule?
A: Its Ki is 242 nM.

Q: How did the IC50 (Cannabinoid receptor 2 [1]) turn out when CC[C@H]1COc2cccc3c(=O)c(C(=O)NC45CC6CC(CC(C6)C4)C5)cn1c23 was run?
A: Its IC50 is 413 nM.

Q: And the Ratio Ki (Homo sapiens)?
A: The Ratio Ki was 7.

Q: And the Ki (Cannabinoid receptor 1 [2])?
A: The Ki was 578 nM.

Q: And the Ki (Cannabinoid receptor 2 [3])?
A: Its Ki is 88 nM.

Q: What about the Ki (Cannabinoid receptor 2 [4]) of the same molecule?
A: The Ki was 97 nM.

Q: What about the Ki (Cannabinoid receptor 1 [5]) of the same molecule?
A: Its Ki is 653 nM.

Q: What does the source list for CC(C)[C@@H]1COc2cccc3c(=O)c(C(=O)NC45CC6CC(CC(C6)C4)C5)cn1c23?
A: IC50 (Cannabinoid receptor 2 [1]): 9.84 nM; Ratio Ki (Homo sapiens): 71; Ki (Cannabinoid receptor 1 [2]): 88 nM; Ki (Cannabinoid receptor 2 [3]): 1.24 nM; Ki (Cannabinoid receptor 2 [4]): 1.75 nM; Ki (Cannabinoid receptor 1 [5]): 95 nM

Q: What does the source list for CC(C)[C@H]1COc2cccc3c(=O)c(C(=O)NC45CC6CC(CC(C6)C4)C5)cn1c23?
A: IC50 (Cannabinoid receptor 2 [1]): 55 nM; Ratio Ki (Homo sapiens): 53; Ki (Cannabinoid receptor 1 [2]): 858 nM; Ki (Cannabinoid receptor 2 [3]): 16.2 nM; Ki (Cannabinoid receptor 2 [4]): 19.3 nM; Ki (Cannabinoid receptor 1 [5]): 864 nM

Q: CC(C)C[C@@H]1COc2cccc3c(=O)c(C(=O)NC45CC6CC(CC(C6)C4)C5)cn1c23 was tested. Which IC50 (Cannabinoid receptor 2 [1]) did it give?
A: The IC50 was 36 nM.

Q: And the Ratio Ki (Homo sapiens)?
A: Its Ratio Ki is greater than 1080.

Q: What about the Ki (Cannabinoid receptor 1 [2]) of the same molecule?
A: Its Ki is greater than 10000 nM.

Q: And the Ki (Cannabinoid receptor 2 [3])?
A: The Ki was 9.24 nM.

Q: What about the Ki (Cannabinoid receptor 2 [4]) of the same molecule?
A: The Ki was 10.2 nM.

Q: And the Ki (Cannabinoid receptor 1 [5])?
A: Its Ki is greater than 10000 nM.

Q: For O=C(NC12CC3CC(CC(C3)C1)C2)c1cn2c3c(cccc3c1=O)OC[C@H]2Cc1ccccc1, which IC50 (Cannabinoid receptor 2 [1]) is on record?
A: Its IC50 is 17.5 nM.

Q: What about the Ratio Ki (Homo sapiens) of the same molecule?
A: Its Ratio Ki is 28.

Q: And the Ki (Cannabinoid receptor 1 [2])?
A: Its Ki is 105 nM.

Q: What about the Ki (Cannabinoid receptor 2 [3]) of the same molecule?
A: The Ki was 3.72 nM.

Q: What about the Ki (Cannabinoid receptor 2 [4]) of the same molecule?
A: The Ki was 4.65 nM.

Q: What about the Ki (Cannabinoid receptor 1 [5]) of the same molecule?
A: Its Ki is 121 nM.

Q: For CC1(C)COc2cccc3c(=O)c(C(=O)NC45CC6CC(CC(C6)C4)C5)cn1c23, which IC50 (Cannabinoid receptor 2 [1]) is on record?
A: Its IC50 is 242 nM.

Q: What about the Ratio Ki (Homo sapiens) of the same molecule?
A: Its Ratio Ki is 4.

Q: What about the Ki (Cannabinoid receptor 1 [2]) of the same molecule?
A: Its Ki is 221 nM.

Q: What about the Ki (Cannabinoid receptor 2 [3]) of the same molecule?
A: The Ki was 56 nM.

Q: And the Ki (Cannabinoid receptor 2 [4])?
A: The Ki was 68 nM.

Q: And the Ki (Cannabinoid receptor 1 [5])?
A: The Ki was 276 nM.

Q: For CCC1COc2cccc3c(=O)c(C(=O)NC45CC6CC(CC(C6)C4)C5)cn1c23 (racemic), which IC50 (Cannabinoid receptor 2 [1]) is on record?
A: The IC50 was 38 nM.

Q: And the Ratio Ki (Homo sapiens)?
A: The Ratio Ki was 88.

Q: What about the Ki (Cannabinoid receptor 1 [2]) of the same molecule?
A: The Ki was 689 nM.

Q: And the Ki (Cannabinoid receptor 2 [3])?
A: The Ki was 7.83 nM.

Q: What about the Ki (Cannabinoid receptor 2 [4]) of the same molecule?
A: The Ki was 13.5 nM.

Q: What about the Ki (Cannabinoid receptor 1 [5]) of the same molecule?
A: Its Ki is 725 nM.

Q: Which results are given for CCC1COc2c(N3CCCC3)ccc3c(=O)c(C(=O)NC45CC6CC(CC(C6)C4)C5)cn1c23 (racemic)?
A: IC50 (Cannabinoid receptor 2 [1]): 29 nM; Ratio Ki (Homo sapiens): > 1230; Ki (Cannabinoid receptor 1 [2]): > 10000 nM; Ki (Cannabinoid receptor 2 [3]): 8.12 nM; Ki (Cannabinoid receptor 2 [4]): 10.5 nM; Ki (Cannabinoid receptor 1 [5]): > 10000 nM

Q: Which IC50 (Cannabinoid receptor 2 [1]) does the source give for CCC1COc2c(N3CCN(C)CC3)ccc3c(=O)c(C(=O)NC45CC6CC(CC(C6)C4)C5)cn1c23 (racemic) here?
A: The IC50 was 196 nM.

Q: And the Ratio Ki (Homo sapiens)?
A: Its Ratio Ki is greater than 238.

Q: And the Ki (Cannabinoid receptor 1 [2])?
A: Its Ki is greater than 10000 nM.

Q: And the Ki (Cannabinoid receptor 2 [3])?
A: The Ki was 42 nM.

Q: What about the Ki (Cannabinoid receptor 2 [4]) of the same molecule?
A: The Ki was 61 nM.

Q: And the Ki (Cannabinoid receptor 1 [5])?
A: Its Ki is greater than 10000 nM.

Q: Which IC50 (Cannabinoid receptor 2 [1]) does the source give for CCC1COc2cccc3c(=O)c(C(=O)NC4C5CC6CC(C5)CC4C6)cn1c23 (racemic) here?
A: The IC50 was 57 nM.

Q: And the Ratio Ki (Homo sapiens)?
A: The Ratio Ki was 30.

Q: What about the Ki (Cannabinoid receptor 1 [2]) of the same molecule?
A: Its Ki is 389 nM.

Q: And the Ki (Cannabinoid receptor 2 [3])?
A: Its Ki is 13.2 nM.

Q: And the Ki (Cannabinoid receptor 2 [4])?
A: Its Ki is 16.1 nM.

Q: And the Ki (Cannabinoid receptor 1 [5])?
A: The Ki was 425 nM.

Q: How did the IC50 (Cannabinoid receptor 2 [1]) turn out when CCC1COc2cccc3c(=O)c(C(=O)NC(C)CCC(C)C)cn1c23 (racemic) was run?
A: The IC50 was 62 nM.

Q: And the Ratio Ki (Homo sapiens)?
A: Its Ratio Ki is greater than 633.

Q: What about the Ki (Cannabinoid receptor 1 [2]) of the same molecule?
A: Its Ki is greater than 10000 nM.

Q: And the Ki (Cannabinoid receptor 2 [3])?
A: The Ki was 15.8 nM.

Q: What about the Ki (Cannabinoid receptor 2 [4]) of the same molecule?
A: The Ki was 196 nM.

Q: And the Ki (Cannabinoid receptor 1 [5])?
A: The Ki was greater than 10000 nM.

Q: CCC1COc2cccc3c(=O)c(C(=O)Nc4ccncc4)cn1c23 (racemic) was tested. Which IC50 (Cannabinoid receptor 2 [1]) did it give?
A: Its IC50 is 683 nM.

Q: What about the Ratio Ki (Homo sapiens) of the same molecule?
A: Its Ratio Ki is 8.

Q: What about the Ki (Cannabinoid receptor 1 [2]) of the same molecule?
A: Its Ki is 1150 nM.

Q: And the Ki (Cannabinoid receptor 2 [3])?
A: The Ki was 152 nM.

Q: What about the Ki (Cannabinoid receptor 2 [4]) of the same molecule?
A: The Ki was 183 nM.

Q: And the Ki (Cannabinoid receptor 1 [5])?
A: The Ki was 1380 nM.
